Laboratory results published in patent US7109170B2, “Region of factor IXa protease domain that interacts with factor VIIIa and methods therefor” (Saint Louis University, priority 1999, dated 2006).
Peptide text beside a SMILES is read from it.

Target: T1, factor IXa (Homo sapiens, UniProt P00740)
T1 construct: heavy chain of factor IXa comprised of residues 181–415; light chain of factor IXa comprised of residues 1–145
Test: Factor IX peptide competition assay in the absence of factor VIIIa
Type: biochemical
Method: Each reaction mixture contained 20 nM of factor IXa, 100 nM of factor X, various concentrations of peptide, 25 μM of phospholipid, and 5 mM CaCl2 in TBS/BSA. The reaction mixtures were incubated for 2.5, 5, 10, 15, and 20 minutes at 37° C. and were stopped with the addition of 1.5 μL of 0.5 M EDTA and placed on ice. Forty μL of each reaction was 5 added to 100 μL of TBS/BSA in a 96 well microtiter plate and S-2222 was added to a final concentration of 100 μM.

`CC(C)C[C@H](N)C(=O)N[C@H](C(=O)N[C@@H](CC(=O)O)C(=O)N[C@@H](CCCNC(=N)N)C(=O)N[C@@H](C)C(=O)N[C@H](C(=O)O)[C@@H](C)O)C(C)C` [Protein P-4351, LVDRAT] (H-LVDRAT-OH; N-terminus and C-terminus assumed) was tested. Which “inhibitory effect on factor IXa's ability to activate factor X” value did it give?
Its value is “no inhibitory effect”.
